Here are results for two substances from patent US8383084B2, “Destruction of spores through glycoconjugate enhanced phagocytosis” (priority 2006, dated 2013).

Read-outs that look alike come from different tables or passages of the source. Some results are limits rather than exact numbers.

The test system of data set [1] is murine macrophages.
The subject of data set [2] is murine macrophages. In kind it is cell-based, C57BL/6 mice.
The test system of the next data set is human macrophages. It is filed as cell-based.
Data set [3] deals with B. cereus spores. It is filed as cell-based, Bacillus cereus ATCC 11778.
For data set [4], the system named is B. cereus spores. In kind it is cell-based, Bacillus cereus ATCC 11778. This is another data set of the same source.
Data set [5] relates to murine macrophages. It is filed as cell-based, C57BL/6 mice. The source holds these as a separate data set.
Data set [6] concerns murine macrophages. The data set can be described thus: Comet assay (tail vs. head) and phagocyte diameter. It is filed as cell-based, C57BL/6 mice. As to conditions: for diameter of phagocytes upon uptaking glycoconjugate-coated spores: compared to macrophages only, spores only, glycoconjugate alone; for uptake of coated spores and spore-induced cell death: glycoconjugate-coated spores, B; for uptake of coated spores and spore-induced cell death / effect of glycoconjugate-treated spores on murine macrophages (Comet assay): FIG. 10A; for diameter of phagocytic cells, glycoconjugate alone: glycoconjugates alone, dilutions 10^0, 10^-2, 10^-4; for effect of glycoconjugate-treated spores on murine macrophages (Comet assay): macrophages exposed to treated spores, 10B; for effect of glycoconjugate alone on macrophages (Comet assay): macrophages treated with glycoconjugate only, FIG. 10E, 10F. The protocol: Possible induction of apoptosis was determined by Comet assay (FIG. 10) using Trevigen (Gaithersburg, Md.) Comet assay kit and analyzed under epifluorescence microscope (FIG. 10). Nuclei with damaged DNA have the appearance of a comet with a bright head and a tail, whereas nuclei with undamaged DNA appear round, with no tail. Ration tail vs. head was measured in order to determine apoptosis (FIG. 10).

Consider “GalNAcα1-3 GalNAcβ-PAA-flu [GalNAcα1-3GalNAcβ-PAA-flu]”, for which the macrophage viability entry with murine macrophages [1] is “up to 87%”. In the data set on murine macrophages [2], the “induction of macrophage NO production” value is listed as “induced macrophage NO production” and the “macrophage NO production (extent)” value is “less stimulatory”. The “human macrophage NO production” value in the data set with human macrophages is listed as “stimulate human macrophage nitric oxide (NO) production”. In the data set with B. cereus spores [3], the destruction of spores is 86.4% and the “dose at which 50% of the spores were killed” value stood at 100 pg/mL. For the same substance, in the data set with B. cereus spores [4], the “destruction of spores, following spores' exposure” value stood at 76.4%; the “destruction of spores, prior to exposure” value worked out at 65.5%; the “destruction of the spores (in words)” value is recorded as “almost total destruction of the spores”; the “spores killed, following exposure condition” value is about 50%. Besides, in the data set on B. cereus spores [4], the “spores killed, prior to and during exposure conditions” value is recorded as 70-80%. The LDH release/production with murine macrophages [5] turned out to be 11.9%. Further, in the data set on murine macrophages [6], the “diameter of phagocytes upon uptaking glycoconjugate-coated spores” value is “increased”; the “uptake of coated spores and spore-induced cell death” value is “stimulates the uptake of coated spores and protect from spore-induced cell death”; the “diameter of phagocytic cells, glycoconjugate alone” value was “do not affect the diameter of phagocytic cells”; the “effect of glycoconjugate-treated spores on murine macrophages (Comet assay)” value is “pro-apoptotic effects”. For the same substance, in the data set with murine macrophages [6], the “effect of glycoconjugate alone on macrophages (Comet assay)” value was “do not induce death”.

“Galα1-3 GalNAcα-PAA-flu [Galα1-3GalNAcα-PAA-flu]” displayed a macrophage viability with murine macrophages [1] of at most 97.8%. In addition, in the data set with murine macrophages [2], the “induction of macrophage NO production” value was “induced macrophage NO production” and the “macrophage NO production (extent)” value is reported as “doubled”. In the data set on B. cereus spores [3], the destruction of spores was 89.4%, the “destruction of the spores (in words)” value is reported as “almost total destruction of the spores” and the “dose at which 50% of the spores were killed” value is 1 pg/mL. This substance also gave an LDH release/production in the data set with murine macrophages [5] of 8.9%. In the data set with murine macrophages [6], the “diameter of phagocytes upon uptaking glycoconjugate-coated spores” value is given as “increased”; the “uptake of coated spores and spore-induced cell death” value is “stimulates the uptake of coated spores and protect from spore-induced cell death”; the “diameter of phagocytic cells, glycoconjugate alone” value was “do not affect the diameter of phagocytic cells”; the “effect of glycoconjugate-treated spores on murine macrophages (Comet assay)” value is reported as “pro-apoptotic effects”. Besides, the “effect of glycoconjugate alone on macrophages (Comet assay)” value with murine macrophages [6] is recorded as “do not induce death”.
